# Patent US20250018068A1, “4H-IMIDAZO[1,5-B]PYRAZOLE DERIVATIVES FOR DIAGNOSIS” (AC IMMUNE SA, priority 2021, published 2025)
# Entries after “also recorded” stand apart in the source; their conditions may differ.
# Legend:
# [1] = molecular target: T1, PD brain-derived alpha-synuclein aggregates (Homo sapiens, UniProt P37840); test: Saturation binding on PD brain-derived alpha-synuclein aggregates by micro-radiobinding; settings: PD brain tissue homogenates
# T1 construct: from tissue; host or cells: human PD donor brain, sarkosyl-insoluble pellet
# Protocol: The procedure was adapted from the protocol described in Spillantini et al., 1998. Frozen tissue blocks from PD donors were thawed on ice and homogenized using a glass dounce homogenizer. The homogenate was then centrifuged at 11,000×g (12,700 RPM) in an ultracentrifuge (Beckman, XL100K) for 20 minutes at 4° C. using a pre-cooled 70.1 rotor (Beckman, 342184). Pellets were resuspended in extraction buffer [10 mM Tris-HCl pH 7.4, 10% sucrose, […], 1% protease inhibitor (Calbiochem 539131), 1 mM EGTA, 1% phosphatase inhibitor (Sigma P5726 and P0044)] and centrifuged at 15,000×g (14,800 RPM, a 70.1 Ti rotor) for 20 minutes at 4° C. […]
# PD brain-derived alpha-synuclein aggregates were spotted onto microarray slides. […] Following exposure, phosphor storage screens were scanned with a laser imaging system (Typhoon FLA 7000) to readout the signal from the radiobinding experiments described above. Quantification of the signal was performed using the ImageJ software package. Non-specific signal was determined with an excess of non-radiolabelled reference ligand (Example-1 at 2 μM) and specific binding was calculated by subtracting the non-specific signal from the total signal. Kd values were calculated in GraphPad Prism7 by applying a nonlinear regression curve fit using a one site specific binding model.
# [2] = test system: pathological alpha-synuclein aggregates; test: Autoradiography on frozen human brain sections (specific binding, Kd); settings: 10 nM
# Protocol: (§1) Frozen human brain sections from one familial PD case (alpha-synuclein [SNCA] gene G51D missense mutation), labelled as SNCA (G51D), one PDD case, one MSA case, one LBV case and two non-demented control (NDC) cases were first briefly fixed for 15 minutes at 4° C. with 4% paraformaldehyde (Sigma, 252549) and washed three times for five minutes with PBS (Dulbecco's phosphate buffered saline, Sigma) at RT. All slides were then equilibrated for 20 minutes in 50 mM Tris-HCl pH 7.4 buffer prior to use in the experiment. Each brain section was incubated with a fixed concentration (10 nM) of tritiated example compound 1 ([^3H]-Example-1) or increasing concentrations of [^3H]-Example-1 in the range of 2.5 nM to 80 nM of tritiated compound in Tris-HCl buffer for two hours at RT (Total binding, ‘TB’). To determine non-specific (NSB) binding ([^3H]-Example-1 was mixed with 5 μM of non-radiolabelled compound (Example 1, self-block, ‘NSB’). The slides were washed and then exposed and scanned in a real-time autoradiography system (BeaQuant instrument, ai4R). Specific binding was determined by subtracting the non-specific signal from the total signal. Kd values were calculated in GraphPad Prism7 by applying a nonlinear regression curve fit using a one site specific binding model.
# [3] = molecular target: T2, pathological alpha-synuclein aggregates (Homo sapiens, UniProt P37840, G51D); test: as above
# T2 construct: Frozen human brain sections from one familial PD case; from tissue; host or cells: frozen human brain sections: SNCA (G51D) familial PD, PDD, MSA, LBV, non-demented controls
# Protocol: as §1
# [4] = molecular target: T3, alpha-synuclein aggregates (Lewy bodies and Lewy neurites) (Homo sapiens, UniProt P37840); test: High resolution micro-autoradiography, target engagement in alpha-synucleinopathy tissues; format: binding; settings: frozen human brain sections, PD, MSA, DLB, LBV, PDD; 10 nM or 20 nM
# T3 construct: performed on frozen human brain sections from different alpha-synucleinopathy cases; from tissue; host or cells: frozen human brain sections (PD, PDD, MSA, DLB, LBV)
# Protocol: (§2) The protocol was adapted from Marquie et al., 2015. Sections were incubated with tritiated example compound 1 ([^3H]-Example-1) at 10 nM or 20 nM or a reference Tau ligand ([^3H]-Tau-Ref at 20 nM for one hour at room temperature (RT). Sections were then washed as follows: One time in ice-cold 50 mM Tris-HCl pH 7.4 buffer for one minute, two times in 70% ice-cold ethanol for one minute, one time in ice-cold 50 mM Tris-HCl pH 7.4 buffer for one minute and finally rinsed briefly in ice-cold distilled water. Sections were subsequently dried and then exposed to Ilford Nuclear Emulsion Type K5 (Agar Scientific, AGP9281) in a light-proof slide storage box. After five days, the sections were developed by immersing them successively in the following solutions: 1.) Ilford Phenisol Developer (1:5 dilution in H2O, Agar Scientific, AGP9106), 2.) Ilfostop solution (1:20 dilution in H2O, Agar Scientific, AGP9104), 3.) Ilford Hypam Fixer (1:5 dilution in H2O, Agar Scientific, AGP9183) and finally rinsed with H2O.
# When indicated, immunostaining was also performed on the same section. For image acquisition, sections were mounted using ProLong Gold Antifade reagent (Invitrogen P36930) and imaged on a Panoramic150 Slide Scanner (3DHistech) with a 20×objective capturing separately brightfield and fluorescent images. […]
# Tau aggregates = test: High resolution micro-autoradiography on AD tissue containing pathological Tau aggregates; format: binding, human
# Protocol: as §2
# When indicated, immunostaining was also performed on the same section. For image acquisition, sections were mounted using ProLong Gold Antifade reagent (Invitrogen P36930) and imaged on a Panoramic150 Slide Scanner (3DHistech) with a 20×objective capturing separately brightfield and fluorescent images.
compound,measurement,setting,value
[3H]c1cncc(N2Cc3cc(-c4cnc(N5CC[C@H](F)C5)c([3H])c4)nn3C2=O)c1 [[^3H]-Example-1],Kd,[1],18 nM
same,Autoradiographic signal in non-demented control cases,[2]; non-demented control (NDC) brain sections,very weak
same,Target engagement in alpha-synucleinopathy tissues by autoradiography,"[2]; one PDD, one LBV and one MSA case",displayed target engagement
same,Autoradiography signal in a genetic PD case,"[3]; 2.5 nM to 80 nM, SNCA (G51D) brain sections",dose-dependent autoradiography signal
same,Kd,"[3]; human brain tissue sections, familial PD case (SNCA G51D missense mutation), autoradiography",44 nM
same,Target engagement on Lewy bodies and Lewy neurites (silver grains co-localized with a-syn-pS129),[4],strong target engagement
same,Selectivity for alpha-synuclein over Tau pathological aggregates,Tau aggregates; AD brain tissue,good selectivity for alpha-synuclein over Tau
same,Target engagement on Tau aggregates in AD brain tissue,"Tau aggregates; AD tissue, compared to reference Tau ligand [3H]-Tau-Ref",did not display specific target engagement; also recorded: No accumulation of silver grains
